Key:
[1] = Storage stability tests to a base-reactive compound; type: physicochemical; conditions: 0.1 g in 2 g SR-NPG, 1 week at 40° C., viscosity change
[2] = Heat resistance tests (TG-DTA); type: physicochemical; conditions: 10 mg, heated from 30° C. to 500° C. at 10° C./min.
Text: Thus calculated temperature was used as decomposition initiation temperature to evaluate heat resistance of these compounds (base generators).

[3] = Solubility tests to organic solvents and a base-reactive compound
Procedure: The case where the compounds (base generators) were dissolved into less than 1 mL of the addition amount of the organic solvents or the base-reactive compound was evaluated as [++]; the case where the compounds (base generators) were dissolved into not less than 1 mL and less than 5 mL thereof was evaluated as [+]; the case where the compounds (base generators) were dissolved into not less than 5 mL and less than 10 mL thereof was evaluated as [−]; and the case where the compounds (base generators) were dissolved only into not less than 10 mL thereof was evaluated as [−−].

Compound | Storage stability in epoxy [1] | TG-DTA Decomposition Initiation Temperature (5% weight loss initiation temperature) [2] | further results
1,3-dimethyl-2-(N′,N′,N″,N″-tetramethylguanidino)-4,5-dihydro-3H-imidazolium triphenyl(n-butyl)borate [Example 4] | ◯ | 280 °C | 
CC(C)NC(=[N+]=C(N(C)C)N(C)C)NC(C)C.Cc1ccc(C#C[B-](c2ccccc2)(c2ccccc2)c2ccccc2)cc1 [Example 6, 1,2-diisopropyl-4,4,5,5-tetramethylbiguanidium p-tolylethynyl triphenylborate] | ◯ | 185 °C | 
tetrakis(tetramethylguanidino)phosphonium tetraphenylborate [Comp. Ex. 4] | − |  | Solubility in EL ([3]; 0.1 g compound, ethyl lactate added gradually at room temperature, visual): −− (dissolved only into not less than 10 mL thereof); Solubility in SR-NPG ([3]; 0.1 g compound, neopentylglycol diglycidyl ether added gradually at room temperature, visual): −− (dissolved only into not less than 10 mL thereof); Solubility in PGMEA ([3]; 0.1 g compound, propyleneglycol monomethylether acetate added gradually at room temperature, visual): −− (dissolved only into not less than 10 mL thereof); Solubility to organic solvents generally used in this field (in words) ([3]; conclusion from Table 7): poor solubility; Solubility to the base-reactive compound (in words) ([3]; conclusion from Table 7): poor solubility
CCCC[B-](c1ccccc1)(c1ccccc1)c1ccccc1.CN(C)C(=N[P+](N=C(N(C)C)N(C)C)(N=C(N(C)C)N(C)C)N=C(N(C)C)N(C)C)N(C)C [Example 5, tetrakis(tetramethylguanidino)phosphonium triphenyl(n-butyl)borate] | ◯ | 318 °C | 
1-cyclohexyl-3-(4-nitrophenyl)-4,4,5,5-tetramethylbiguanidium triphenyl(n-butyl)borate [Example 9] | ◯ | 223 °C | 
tetrakis(tetramethylguanidino)phosphonium p-tolylethynyl triphenylborate [Example 7] | ◯ | 300 °C | 
1,3-dimethyl-2-(N,N′,N″,N″-tetramethylguanidino)-4,5-dihydro-3H-imidazolium triphenyl(n-butyl)borate [Comp. Ex. 10] | − |  | 

Reference: patent publication US10100070B2, “Borate-based base generator, and base-reactive composition comprising such base generator” (FUJIFILM Wako Pure Chemical Corporation, priority 2014, dated 2018)
